Source: patent US20180338980A1, “AROMATIC SULFONAMIDE DERIVATIVES” (BAYER PHARMA AKTIENGESELLSCHAFT, priority 2015, published 2018)

Target: T1, P2X4 (Homo sapiens, UniProt Q99571)
T1 sequence (Q99571 1-388): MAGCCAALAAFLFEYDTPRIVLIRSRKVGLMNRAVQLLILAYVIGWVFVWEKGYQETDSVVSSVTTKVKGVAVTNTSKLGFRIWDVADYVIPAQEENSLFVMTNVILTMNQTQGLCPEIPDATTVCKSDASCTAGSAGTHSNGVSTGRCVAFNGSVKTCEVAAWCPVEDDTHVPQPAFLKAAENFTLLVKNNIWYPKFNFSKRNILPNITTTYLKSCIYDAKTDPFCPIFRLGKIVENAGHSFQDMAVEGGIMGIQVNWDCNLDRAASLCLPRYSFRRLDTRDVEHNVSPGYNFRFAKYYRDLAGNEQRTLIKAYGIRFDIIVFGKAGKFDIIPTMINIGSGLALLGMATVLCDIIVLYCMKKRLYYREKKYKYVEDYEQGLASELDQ
Test: Assay B: human P2X4 receptor cell line, mitochondrial photina luminescence (agonist Bz-ATP at EC50)
Format: cell-based
Set-up: host or cells: HEK 293 (recombinant, constitutively expressing; with mitochondrial photina in Assay B)
Details: HEK human P2X4 cell line, photina luminescence, agonist Bz-ATP at EC50, average; for Emax: read-out: human P2X4 Assay B avg Efficacy
Description: The identification of agonists and antagonists of the P2X4 receptor from humans and […] also the quantification of the activity of the compounds of the invention was performed by use of recombinant cell lines. […] The test cell lines constitutively express the mouse or human P2X4 receptors. Stimulation of the receptors with an agonist leads to a conformational change of P2X4 and influx of extracellular calcium ions through the ion channel. The cytoplasmatic calcium transient is detected via the calcium sensitive dye Fluo8 for the mouse P2×4 cell line or in case of the human P2×4 cell line a stably expressed calcium-sensitive photoprotein, mitochondrial photina, which, after reconstitution with the cofactor coelenterazine, emits light in dependence of calcium binding [Bovolenta S, Foti M, Lohmer S, Corazza S., J Biomol Screen. […] The strength of Fluo8 fluorescence signal or photina luminescence signal corresponds to the level of receptor activation. An inhibitor would decrease the signal depending on its potency and concentration.
The resulting light signal is measured immediately in the luminometer.

Row | Compound | IC50 [nM] | Emax [%]
1 | NS(=O)(=O)c1cc(NC(=O)Cc2c(Cl)cc(C(F)(F)F)c(F)c2F)ccc1Oc1cccc(Cl)c1 [Example 115, 2-[6-Chloro-2,3-difluoro-4-(trifluoromethyl)phenyl]-N-[4-(3-chlorophenoxy)-3-sulfamoylphenyl]acetamide] | 1420 | 54
2 | Cc1cc(CC(=O)Nc2ccc(Oc3cccc(Cl)c3)c(S(N)(=O)=O)c2)c(Cl)cc1Br [Example 118, 2-(4-Bromo-2-chloro-5-methylphenyl)-N-[4-(3-chlorophenoxy)-3-sulfamoylphenyl]acetamide] | 1890 | 61
3 | NS(=O)(=O)c1cc(NC(=O)Cc2c(Cl)ccc(Cl)c2Cl)ccc1Oc1cccc(Cl)c1 [Example 125, N-[4-(3-Chlorophenoxy)-3-sulfamoylphenyl]-2-(2,3,6-trichlorophenyl)acetamide] | 506 | 97
4 | Cc1cc(Cl)c(CC(=O)Nc2ccc(Oc3cccc(Cl)c3)c(S(N)(=O)=O)c2)c(Cl)c1 [Example 126, N-[4-(3-Chlorophenoxy)-3-sulfamoylphenyl]-2-(2,6-dichloro-4-methylphenyl)acetamide] | 467 | 81
5 | NS(=O)(=O)c1cc(NC(=O)Cc2c(C(F)(F)F)ccc(Cl)c2Cl)ccc1Oc1cccc(Cl)c1 [Example 127, N-[4-(3-chlorophenoxy)-3-sulfamoylphenyl]-2-[2,3-dichloro-6-(trifluoromethyl)phenyl]acetamide] | 1050 | 66
6 | CS(=O)(=O)c1ccc(COc2ccc(NC(=O)Cc3ccccc3Cl)cc2S(N)(=O)=O)cc1 [Example 147, 2-(2-Chlorophenyl)-N-(4-{[4-(methylsulfonyl)benzyl]oxy}-3-sulfamoylphenyl)acetamide] | 1270 | 69
7 | NS(=O)(=O)c1cc(NC(=O)Cc2ccccc2Cl)ccc1OCC1COC1 [Example 159, 2-(2-Chlorophenyl)-N-[4-(oxetan-3-ylmethoxy)-3-sulfamoylphenyl]acetamide] | 1180 | 91
8 | NS(=O)(=O)c1cc(NC(=O)Cc2ccccc2Cl)ccc1OCC1CCCO1 (stereo not drawn) [Example 161, 2-(2-Chlorophenyl)-N-[3-sulfamoyl-4-(tetrahydrofuran-2-ylmethoxy)phenyl]acetamide] | 832 | 74
9 | NS(=O)(=O)c1cc(NC(=O)Cc2ccccc2)cc(F)c1Oc1cccc(Cl)c1 [Example 170, N-[4-(3-Chlorophenoxy)-3-fluoro-5-sulfamoylphenyl]-2-phenylacetamide] | > 16000 | 36
10 | Cc1ccccc1CC(=O)Nc1cc(F)c(Oc2cccc(Cl)c2)c(S(N)(=O)=O)c1 [Example 171, N-[4-(3-Chlorophenoxy)-3-fluoro-5-sulfamoylphenyl]-2-(2-methylphenyl)acetamide] | 4910 | 65
11 | Cc1cccc(CC(=O)Nc2cc(F)c(Oc3cccc(Cl)c3)c(S(N)(=O)=O)c2)c1 [Example 172, N-[4-(3-Chlorophenoxy)-3-fluoro-5-sulfamoylphenyl]-2-(3-methylphenyl)acetamide] | 3240 | 63
12 | NS(=O)(=O)c1cc(NC(=O)Cc2cccnc2)ccc1Oc1cccc(Cl)c1 [Example 181, N-[4-(3-Chlorophenoxy)-3-sulfamoylphenyl]-2-(pyridin-3-yl)acetamide] | 2240 | 63
13 | CC(C(=O)Nc1ccc(Oc2cccc(Cl)c2)c(S(N)(=O)=O)c1)c1ccccc1 (stereo not drawn) [Example 184, N-[4-(3-Chlorophenoxy)-3-sulfamoylphenyl]-2-phenylpropanamide] | – | 53
14 | NS(=O)(=O)c1cc(NC(=O)Cc2cccc(Cl)c2)ccc1Oc1cccc(Cl)c1 [Example 186, N-[4-(3-Chlorophenoxy)-3-sulfamoylphenyl]-2-(3-chlorophenyl)acetamide] | 462 | 97
15 | NS(=O)(=O)c1cc(NC(=O)Cc2ccncc2)ccc1Oc1cccc(Cl)c1 [Example 188, N-[4-(3-Chlorophenoxy)-3-sulfamoylphenyl]-2-(pyridin-4-yl)acetamide] | 2560 | 71
16 | Cc1ccc(CC(=O)Nc2ccc(Oc3cccc(Cl)c3)c(S(N)(=O)=O)c2)nc1 [Example 193, N-[4-(3-Chlorophenoxy)-3-sulfamoylphenyl]-2-(5-methylpyridin-2-yl)acetamide] | 1060 | 79
17 | C[C@H](C(=O)Nc1ccc(Oc2cccc(Cl)c2)c(S(N)(=O)=O)c1)c1ccccc1 [Example 194, (2S)—N-[4-(3-chlorophenoxy)-3-sulfamoylphenyl]-2-phenylpropanamide] | – | 65
18 | C[C@@H](C(=O)Nc1ccc(Oc2cccc(Cl)c2)c(S(N)(=O)=O)c1)c1ccccc1 [Example 195, (2R)—N-[4-(3-Chlorophenoxy)-3-sulfamoylphenyl]-2-phenylpropanamide] | – | 64
19 | COCCN(C)C(=O)c1ccccc1CC(=O)Nc1ccc(Oc2cccc(Cl)c2)c(S(N)(=O)=O)c1 [Example 197, 2-(2-{[4-(3-Chlorophenoxy)-3-sulfamoylphenyl]amino}-2-oxoethyl)-N-(2-methoxyethyl)-N-methylbenzamide] | 4120 | 68
20 | CN(C)C(=O)c1ccccc1CC(=O)Nc1ccc(Oc2cccc(Cl)c2)c(S(N)(=O)=O)c1 [Example 198, 2-(2-{[4-(3-Chlorophenoxy)-3-sulfamoylphenyl]amino}-2-oxoethyl)-N,N-dimethylbenzamide] | 4740 | 60
21 | NS(=O)(=O)c1cc(NC(=O)Cc2ccccc2)ccc1OC1CCCCC1 [Example 199, N-[4-(Cyclohexyloxy)-3-sulfamoylphenyl]-2-phenylacetamide] | 1960 | 70

Next, values leading:

Row | IC50 [nM] | Emax [%] | Compound
22 | 273 | 48 | NS(=O)(=O)c1cc(NC(=O)Cc2cnc(Cl)cc2Cl)ccc1Oc1cccc(Cl)c1 [Example 111, N-[4-(3-Chlorophenoxy)-3-sulfamoylphenyl]-2-(4,6-dichloropyridin-3-yl)acetamide]
23 | 289 | 60 | NS(=O)(=O)c1cc(NC(=O)Cc2ncccc2Cl)ccc1Oc1cccc(Cl)c1 [Example 112, N-[4-(3-Chlorophenoxy)-3-sulfamoylphenyl]-2-(3-chloropyridin-2-yl)acetamide]
24 | 305 | 64 | NS(=O)(=O)c1cc(NC(=O)Cc2cc(Cl)ccc2Cl)ccc1Oc1cccc(Cl)c1 [Example 114, N-[4-(3-Chlorophenoxy)-3-sulfamoylphenyl]-2-(2,5-dichlorophenyl)acetamide]
25 | 164 | 64 | NS(=O)(=O)c1cc(NC(=O)Cc2ccncc2Cl)ccc1Oc1cccc(Cl)c1 [Example 119, N-[4-(3-Chlorophenoxy)-3-sulfamoylphenyl]-2-(3-chloropyridin-4-yl)acetamide]
26 | 218 | 62 | Cc1ccc(Cl)c(CC(=O)Nc2ccc(Oc3cccc(Cl)c3)c(S(N)(=O)=O)c2)c1F [Example 121, 2-(6-Chloro-2-fluoro-3-methylphenyl)-N-[4-(3-chlorophenoxy)-3-sulfamoylphenyl]acetamide]
27 | 369 | 55 | NS(=O)(=O)c1cc(NC(=O)Cc2cc(F)c(F)cc2Cl)ccc1Oc1cccc(Cl)c1 [Example 123, 2-(2-Chloro-4,5-difluorophenyl)-N-[4-(3-chlorophenoxy)-3-sulfamoylphenyl]acetamide]
28 | 194 | 72 | N#Cc1ccccc1COc1ccc(NC(=O)Cc2ccccc2Cl)cc1S(N)(=O)=O [Example 145, 2-(2-Chlorophenyl)-N-{4-[(2-cyanobenzyl)oxy]-3-sulfamoylphenyl}acetamide]
29 | 327 | 93 | NS(=O)(=O)c1cc(NC(=O)Cc2ccccc2Cl)ccc1OCc1ccncn1 [Example 153, 2-(2-Chlorophenyl)-N-[4-(pyrimidin-4-ylmethoxy)-3-sulfamoylphenyl]acetamide]
30 | 252 | 77 | NS(=O)(=O)c1cc(NC(=O)Cc2ccccc2Cl)ccc1OCc1ncccn1 [Example 154, 2-(2-Chlorophenyl)-N-[4-(pyrimidin-2-ylmethoxy)-3-sulfamoylphenyl]acetamide]
31 | 335 | 66 | NS(=O)(=O)c1cc(NC(=O)Cc2ccccc2Cl)ccc1OCC1CCOC1 (stereo not drawn) [Example 162, 2-(2-Chlorophenyl)-N-[3-sulfamoyl-4-(tetrahydrofuran-3-ylmethoxy)phenyl]acetamide]
32 | 429 | 54 | Cc1cccc(CC(=O)Nc2ccc(Oc3cccc(Cl)c3)c(S(N)(=O)=O)c2)n1 [Example 189, N-[4-(3-Chlorophenoxy)-3-sulfamoylphenyl]-2-(6-methylpyridin-2-yl)acetamide]
33 | 171 | 65 | COc1ccc(CC(=O)Nc2ccc(Oc3cccc(Cl)c3)c(S(N)(=O)=O)c2)cc1 [Example 190, N-[4-(3-Chlorophenoxy)-3-sulfamoylphenyl]-2-(4-methoxyphenyl)acetamide]
